From patent US8178148B2, “Coffee drink composition” (Kao Corporation, priority 2004, dated 2012)

System: spontaneously hypertensive rats (SHR)
Test: Evaluation of hypotensive effect of FH1041 with added hydroxyhydroquinone (Example 3)
Assay type: in vivo, rat
Details: oral, HHQ added to FH1041 (300 mg/kg as total chlorogenic acids)
Description: (a) As in Example 2, 12-week-old male spontaneously hypertensive rats (SHR) was bred preliminarily.
(B) Administration Method and Amount: • Physiological saline was orally administered to a control group. An extract from raw coffee beans (“Flavor Holder FH1041”, product of T. Hasegawa Co., Ltd.) having chlorogenic acids as a main component was administered to a comparison group. The extract was prepared so that its administration amount would be 300 mg/kg in terms of the total chlorogenic acid amount. In test group 1, an administration material was prepared to permit the administration of FH1041 in an amount of 300 mg/kg in terms of a total chlorogenic acid amount and the administration of hydroxyhydroquinone in an amount of 0.03 mg/kg (0.01% relative to the total chlorogenic acid amount). In test group 2, an administration material was prepared to permit the administration of FH1041 in an amount of 300 mg/kg in terms of a total chlorogenic acid amount and the administration of hydroxyhydroquinone in an amount of 0.3 mg/kg (0.1% relative to the total chlorogenic acid amount). […]
Test method: One group consisted of three SHR. Systolic blood pressures of the caudal artery were measured prior to oral administration and 12 hours after administration and based on them, a percent change in blood pressure was calculated. […]

SMILES: Oc1ccc(O)c(O)c1 [hydroxyhydroquinone]
- Influence on the hypotensive effect of chlorogenic acids: disturbed
